Values of other authors as cited in EP0331593A1, “Process for the preparation of hydroxybenzaldehydes by hydrocarbonylation” (RHONE-POULENC CHIMIE, priority 1988, dated 1989).
Where two headings read alike, the source gives them in different places.

Columns and labels:
[1] = in water, generally 25°C
[2] = phosphine

Row | SMILES | pKa * (pka del'acide conjugué de l'amine tertiaire) ([1]; Tableau I) | pKa * (pka de l'acide conjugé de l'amine tertiaire) ([1]; Tableau II) | pKa * (pka del'acide conjugué de l'amine tertiaire) ([1]; Tableau III) | pKa * (pka de l'acide conjugé de l'amine tertiaire) ([1]; Tableau IV) | pKa à 25°C [2]
1 | Cc1ccnc(C)c1 [Diméthyl-2,4 Pyridine] | 6,99 | 6,99 | 6,99 | 6,99 | –
2 | Cc1cccc(C)n1 [Diméthyl-2,6 Pyridine] | 6,73 | 6,73 | – | – | –
3 | Cc1ccncc1C [Diméthyl-3,4 Pyridine] | 6,57 | 6,57 | – | – | –
4 | Cc1ccncc1 [Gamma Picoline] | 6,02 | – | – | – | –
5 | c1cnccn1 [Pyrazine] | 0,65 | – | 0,65 | 0,65 | –
6 | c1ccc(P(c2ccccc2)c2ccccc2)cc1 [triphénylphosphine] | – | – | – | – | 2,73
7 | Cc1cccc(P(c2cccc(C)c2)c2cccc(C)c2)c1 [tris(méthyl-3 phényl)phosphine] | – | – | – | – | 3,3
